Key:
3T3-L1 adipocytes = experiment: Glucose uptake in differentiated 3T3-L1 adipocytes; format: cell-based; conditions: for % Glucose uptake 0.1 μm / % Glucose uptake 1.0 μm: average of quadruplicate ± SD
Description: Referring to FIG. 8 glucose uptake in 3T3-L1 differentiated adipocytes was measured after treatment with the test compound. The assay was conducted according to the method of Tafuri, Endocrinology, 137, 4706-4712 (1996). The serum-starved cells were treated with the test compound for 48 hours at different concentrations, then washed and incubated in glucose-free media for 30 minutes at 37° C. Then ^14C-deoxyglucose was added and uptake was monitored for 30 minutes under incubation. After washing, the cells were lysed (0.1% SIDS) and counted.
Basal glucose uptake was measured in differentiated 3T3-L1 adipocytes following the protocol of Tafuri (6) with modifications. Briefly, 3T3-L1 fibroblasts, obtained from ATCC (Manassas, Va.), were differentiated to adipocytes by treating cells with porcine insulin (1 μg/ml for 4 days), dexamethasone (0.25 μM for first 2 days) and isobutyl methyl xanthine (IBMX, 0.5 mM for first 2 days) (all from Sigma Chemicals, St Louis, Mo.) following the protocol of Frost and Lane (7). Differentiated adipocytes were incubated in Dulbecco's Modified Eagle Medium (DMEM) containing 10% fetal bovine serum (GibcoBRL, Gaithersburg, Md.) with various concentrations of Compound 11 or vehicle (0.1% DMSO) for 48 h in 24-well plates, in triplicate. Cells were washed with phosphate buffered saline (PBS, 150 mM NaCl, 1 mM KH2PO4, 3 mM Na2HPO4; pH 7.4) and incubated in glucose-free DMEM for 2 h at 37° C. The cells were washed 3 times with Krebs Ringer Phosphate Buffer (KRP). Glucose uptake was initiated by addition of 0.25 μCi 2-^14C(U)-deoxy-D-glucose (300 μCi/mmol, American Radiolabeled Chemicals Inc., St Louis, Mo.) per well and the cells incubated for 10 min at room temperature in the presence of 0.1 mmol cold 2-deoxy-D-glucose. Finally, the cells were washed three times with ice-cold PBS containing 10 mM cold glucose, lysed with 0.5% SDS, and counted in a scintillation counter (Beckman LS6500).

Human PPAR-γ2 = target: T1, Human PPAR-γ2 (Homo sapiens, UniProt P37231); experiment: PPAR-gamma mediated transactivation of PPRE-luciferase reporter; format: cell-based; conditions: for EC50: cells transfected with human PPAR-gamma2, 24 hours, non-linear regression, read-out: EC50, induction of PPAR-γ mediated luciferase activity
T1 construct: inserting the PPARγ2 cDNA coding region into pcDNA3.1+ vector; expressed in transfected cells; host or cells: HEK293 cells (ATCC)
T1 sequence (P37231 1-505): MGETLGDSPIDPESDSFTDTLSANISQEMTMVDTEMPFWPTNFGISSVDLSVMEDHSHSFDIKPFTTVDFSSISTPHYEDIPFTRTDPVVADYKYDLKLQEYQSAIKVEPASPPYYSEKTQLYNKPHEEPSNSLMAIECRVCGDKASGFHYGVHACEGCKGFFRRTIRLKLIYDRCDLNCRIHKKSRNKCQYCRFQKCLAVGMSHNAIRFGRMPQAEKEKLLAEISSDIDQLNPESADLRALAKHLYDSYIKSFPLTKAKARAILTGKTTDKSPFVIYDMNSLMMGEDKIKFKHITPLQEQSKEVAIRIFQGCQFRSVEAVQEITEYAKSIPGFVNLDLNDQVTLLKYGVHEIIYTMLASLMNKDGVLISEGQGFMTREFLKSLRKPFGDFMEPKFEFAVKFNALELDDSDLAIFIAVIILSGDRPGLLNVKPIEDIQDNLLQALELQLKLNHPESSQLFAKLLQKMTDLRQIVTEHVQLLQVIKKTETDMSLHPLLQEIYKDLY
Description: Human PPAR-γ2 expression vector was constructed by inserting PPAR-γ2 encoding region into pcDNA3.1+ vector (Invitrogen, Carlsbad, Calif.). Luciferase reporter vector was constructed by ligating PPRE response element adjacent to the upstream of Firefly luciferase coding region. Control vector, pRL-SV40 expressing Renilla luciferase was purchased from Promega (Madison, Wis.).
About 2.7×10^4 293 cells (ATCC, Manassas, Va.) were plated into a 35 mm culture well and maintained in Eagle's Minimal Essential Medium (ATCC, Manassas, Va.) supplemented with 10% heat inactivated horse serum (ATCC, Manassas, Va.) for 24 hours. Expression, reporter and control vectors (2.5 ng control and 100 ng others per culture well) were transfected by LI[…]™ Reagent (Invitrogen, Carlsbad, Calif.). Transfection reagent and DNA were prepared according to manufacture's recommendations and incubated with cells for 3 hours followed by adding equal volume EMEM supplemented with 20% horse serum. Twenty-four hours after transfection, cells were treated with vehicle or compounds at indicated final concentration for 24 hours. Final concentration of vehicle was 0.001% DMSO (Sigma, ST Louis, Mo.) in medium. Vehicle and compound treatment were all conducted in triplicate. Each culture well was then assayed for a response characterized by increased Firefly luciferase activity normalized with Renilla luciferase activity.
Assays for Firefly luciferase activity and Renilla luciferase activity followed the standard protocol of Dual-luciferase Reporter® Assay System (Promega, Madison, Wis.). Briefly, 400 μl Passive Lysis Buffer was added into each culture well and all wells were placed on a shaker for 15 minutes. Five μl cell lysate of each well was added to a reaction tube. Luciferase reagent II and Stop & Glo® were injected into the reaction tube sequentially by Sirius Luminometer (Berthold Detection Systems, Pforzheim, Germany). Final reporter activity was calculated as the ratio of Firefly luciferase activity over by Renilla luciferase activity.
Human PPARγ2 expression vector was constructed by inserting the PPARγ2 cDNA coding region into pcDNA3.1+ vector (Invitrogen, Carlsbad, Calif.). The PPRE-luciferase reporter gene was the kind gift of Dr. Kenneth Feingold. The control vector, pRL-SV40 containing the Renilla luciferase cDNA was purchased from Promega (Madison, Wis.). About 2.7×10^4 HEK293 human embryonal kidney cells (ATCC) were plated into a 35-mm tissue culture dish and maintained in Eagle Modified Essential Medium (EMEM, ATCC) containing 10% heat-inactivated horse serum for 24 h. Expression, reporter (100 ng/dish) and control (2.5 ng/dish) vectors were transfected using LI[…]™ Reagent (GibcoBRL) according to manufacturer's recommendation. At 24 h after transfection, cells were treated with vehicle (0.001% DMSO in medium) or compounds at the indicated concentration and incubated for 24 h. Each treatment was conducted in triplicate. Each culture dish was assayed for firefly luciferase activity normalized by Renilla luciferase activity to account for differences in transfection efficiency. Luciferase activity was measured using the Dual-luciferase Reporter® Assay System (Promega) and a Sirius luminometer (Berthold Detection System, Pforzheim, Germany).

AIA rats = experiment: Cancellous bone loss in adjuvant induced arthritic (AIA) rats, MicroCT of right proximal tibia; format: in vivo, male Lewis rats
NF-kB p65 = NF-kB p65 activation in LPS-stimulated RAW cells (ELISA); format: cell-based; conditions: 10 μM, 1 μg/ml LPS 15 min, FIG. 15

| Molecule | % Glucose uptake 0.1 μm (3T3-L1 adipocytes) | % Glucose uptake 1.0 μm (3T3-L1 adipocytes) | glucose uptake activity in words (3T3-L1 adipocytes; 0.1 μM) | glucose uptake activity in words (3T3-L1 adipocytes; 1 μM) | EC50 (Human PPAR-γ2) | PPAR-gamma agonist potency in words (Human PPAR-γ2; in vitro transactivation assay) | other results |
| --- | --- | --- | --- | --- | --- | --- | --- |
| Insulin: insulin, comparator in the 3T3-L1 glucose uptake test | 335.2 ± 21.7 % basal of the non treated cells | 345.6 ± 8.3 % basal of the non treated cells |  |  |  |  |  |
| COC(=O)C(=Cc1cc(OC)cc(OC)c1)c1ccc(Oc2ccc(C=C3SC(=O)NC3=O)cc2)cc1 [Compound 10, 3-(3,5-Dimethoxyphenyl)-2-{4-[4-(2,4-dioxothiazolidin-5-ylidenemethyl)-phenoxy]-phenyl}-acrylic acid methyl ester] | 142.6 ± 7.4 % basal of the non treated cells | 209.3 ± 22.6 % basal of the non treated cells | retained activity, but less than that of rosiglitazone | comparable to rosiglitazone | 1.14 µM | reasonable potency |  |
| COc1cc(C=C(C(=O)O)c2ccc(Oc3ccc(CC4SC(=O)NC4=O)cc3)cc2)cc(OC)c1 (stereo not shown) [Compound 14] | 108.6 ± 19.9 % basal of the non treated cells | 199.5 ± 11.6 % basal of the non treated cells |  | comparable to rosiglitazone | 0.69 ± 0.038 µM | reasonable potency |  |
| Etanercept |  |  |  |  |  |  | less cancellous bone lost (AIA rats; AIA rats, treated vs vehicle): ~50%; C.Th (AIA rats; right proximal tibia): 198 ± 25 μm; Conn. Dens (AIA rats; right proximal tibia): 31.9 ± 19.7 l/mm3; SMI (0-3) (AIA rats; right proximal tibia): 2.8 ± 0.4; Tb.N (AIA rats; right proximal tibia): 2.8 ± 0.5 l/mm; BV/TV (AIA rats; right proximal tibia, compound 11 50 mg/kg oral, etanercept 1.67 mg/kg i.p., once daily): 12.9 ± 5.2% |
| COC(=O)/C(=C\c1cc(OC)cc(OC)c1)c1ccc(Oc2ccc(CC3SC(=O)NC3=O)cc2)cc1 (stereo not shown) [Compound 23, Z-3-(3,5-Dimethoxyphenyl)-2-{4-[4-(2,4-dioxothiazolidin-5-ylmethyl)-phenoxy]-phenyl}-acrylic acid methyl ester] | 89.5 ± 5.6 % basal of the non treated cells | 118.0 ± 3.6 % basal of the non treated cells |  | essentially inactive | 3.69 ± 1.45 µM |  | PPAR-gamma transactivation potency relative to a comparator, in words (Human PPAR-γ2; in vitro transactivation assay): less than one-tenth the potency of compound 11 |
| CCCCC/C=C/C=C1/C(=O)C=C[C@@H]1C/C=C\CCCC(=O)O [Compound 15dPGJ2, 15-deoxy-Δ^12,14-prostaglandin J2] |  |  |  |  |  |  | inhibition of the activation of NF-kB (p65) (NF-kB p65): inhibited |
| COC(=O)C(Cc1cc(OC)cc(OC)c1)c1ccc(Oc2ccc(C=C3SC(=O)NC3=O)cc2)cc1 (stereo not shown) [Compound 17, 3-(3,5-Dimethoxyphenyl)-2-{4-[4-(2,4-dioxothiazolidin-5-ylidenemethyl)-phenoxy]-phenyl}-propionic acid methyl ester] | 101.9 ± 6.8 % basal of the non treated cells | 130.0 ± 27.0 % basal of the non treated cells | devoid of activity | modest activity | 23.9 µM | essentially inactive |  |
| COC(=O)C(Cc1cc(OC)cc(OC)c1)c1ccc(Oc2ccc(CC3SC(=O)NC3=O)cc2)cc1 (stereo not shown) [Compound 18, 3-(3,5-Dimethoxyphenyl)-2-{4-[4-(2,4-dioxothiazolidin-5-ylmethyl)-phenoxy]-phenyl}-propionic acid methyl ester] | 104.4 ± 5.7 % basal of the non treated cells | 137.0 ± 10.1 % basal of the non treated cells | devoid of activity | modest activity | 57.7 µM | essentially inactive |  |

— patent US20060235062A1, “Novel heterocyclic analogs of diphenylethylene compounds” (THERACOS, INC., priority 2002, published 2006)
